These results are taken from patent publication US7053194B2, “Compositions and methods for p53-mediated repression of gene expression” (Fox Chase Cancer Center, priority 1999, dated 2006).

Common to all, as to type: cell-based, human
For one assay, the system named is A2780 cells. The assay is described as follows: Northern analysis of stathmin mRNA after adriamycin treatment. The note with it: A2780, adriamycin, 12 hours, data not shown. The protocol: (§1) Sub-confluent cultures of MCF 7 and A2780 cells were treated with 100 nM trichostatin A (TSA, Sigma)for 2 hours, followed by incubation with 0.5 ug/ml adriamycin (doxorubicin, Sigma) for the indicated timepoints. Va15 cells grown at 39 degrees were treated with 100 nM TSA for two hours, followed by temperature shift to 32 degrees for 12 hours. p53 induction was monitored by western analysis of 100 ug protein as described (Murphy et al., Genes & Devel. 10:2971–2980, 1996), using 0.1ug/ml DO-1 (Ab-6, Calbiochem) or 421 (Ab-1, Calbiochem). MDM2 induction was monitored using the monoclonal antibody 2A10, kindly provided by Arnold Levine (Rockefeller University). For UV treatments, cells were irradiated with 4 J/m2 of UV-C with a Spectroline X series ultraviolet lamp, and output was monitored with a traceable UV light meter (Fisher Scientific). For ALLN treatment, MCF-7 cells were treated with 50 uM ALLN (calpain I inhibitor, Sigma) made in DMSO (dimethyl sulfoxide, Sigma) or with DMSO alone for 2 hours prior to harvesting.
(§2) Total RNA was isolated from cells using CsC1 purification (Murphy et al., Genes & Devel. 10:2971–2980, 1996) or using Trizol, as per the manufacturer (Gibco/BRL). Northern analyses were performed as described (Murphy et al., Genes & Devel. 10:2971–2980, 1996). Probes for Northerns were radio labeled using random primers (Prime-It-II, Stratagene) and α^32P dCTP (NEN). Autoradiographs were quantitated using NIH image software. The average values from three independent experiments were plotted onto bar graphs following normalization to GAPDH.
(§3) To extend these observations, the human tumor derived cell lines MCF7 (breast carcinoma)and A2780 (ovarian carcinoma) were analyzed following treatment with adriamycin to activate the endogenous, wild type p53 protein. Because of difficulties detecting human Map4 message, we analyzed the mRNA levels of stathmin (also called oncoprotein 18). We recently identified stathmin as a p53-repressed gene. A time course of treatment of MCF-7 cells with the DNA-damaging agent adriamycin (doxorubicin, DOX) results in approximately 30% reduction of stathmin RNA levels after 8 hours and 75% reduction after 24 hours. We chose to focus further on the 12 hour timepoint of adriamycin treatment, where 50% repression of stathmin was evident, in order to limit the toxicity sometimes associated with TSA (Yoshida et al., J Biol Chem 265:17174–17179, 1990). […] The results of three independent experiments indicate that the repression of stathmin expression evident after 12 hours of adriamycin treatment is completely abrogated by incubation with TSA. In contrast, neither the post-translational stabilization of p53 by adriamycin (DOX) nor the induction of the p53 response genes mdm2 and p21/waf1 were affected by TSA. […] We have performed identical experiments in A2780 cells (ovarian carcinoma, wt p53).

Another assay has as its system MCF-7 cells. The description is as above. The settings on record: MCF-7, adriamycin 0.5 ug/ml. The method, then: as §1, §2, §3
The test system of the next assay is CaCl and CaCl/E6. The experiment in a line: Western analysis of survivin after doxorubicin in melanoma line with or without HPV E6. The settings on record: CaCl versus CaCl/E6, doxorubicin treatment. The protocol:
(§4) MCF-7 cells were maintained in RPMI-1640 supplemented with 10% fetal bovine serum and 100 units/ml of penicillin and streptomycin. The human melanoma cell line CaCl, and the derivative clone expressing the HPV E6 gene, were cultured as described (Ahn et al., Oncogene). The human osteosarcoma cell lines Saos-2 and U2-OS (kindly provided by Peter Adams, Fox Chase Cancer Center), the murine p21 knock-out fibroblasts (kindly provided by James Sherley, MIT) and the human lung adenocarcinoma cell line H1299 were cultured in DMEM supplemented with 10% fetal bovine serum and 100 units/ml of penicillin and streptomycin. […] For treatment with ultra-violet light, cells were irradiated with 0–10 J/m2 (as noted) of UV-C with a Spectroline X series ultraviolet lamp, and output was monitored with a traceable UV light meter (Fisher Scientific). For drug treatment, cells were treated with 0.5ug/ml adriamycin (doxorubicin, Sigma), or dilution vehicle alone, for twenty-four hours. p53 induction was monitored by western analysis of 100 ug protein as described (Murphy et al., Genes & Devel. 10:2971–2980, 1996), using 0.1ug/ml DO-1 (Ab-6, Calbiochem) or 421 (Ab-1, Calbiochem.
(§5) Western analysis was performed essentially as described (Murphy et al., 1999). […] Protein concentrations were determined using the Bio-Rad Dc Protein Assay (Bio-Rad). […]

Assay [1] concerns MCF7 breast carcinoma cells. The assay is described as follows: Western analysis of p53 and survivin protein after doxorubicin. The note with it: twenty-four hour treatment. The protocol: as §4, §5
Assay [2] concerns Saos2 (p53-null) and U20S (wt p53). The assay is described as follows: Western analysis of survivin after doxorubicin in osteosarcoma lines. The note with it: Saos2 (p53-null) versus U20S (wt p53), doxorubicin treatment. The method, then:
as §4, §5

Turning to `COc1cccc2c1C(=O)c1c(O)c3c(c(O)c1C2=O)C[C@@](O)(C(=O)CO)C[C@@H]3O[C@H]1C[C@H](N)[C@H](O)[C@H](C)O1` [adriamycin, doxorubicin], the “repression of stathmin expression” value in the assay with A2780 cells is reported as “approximately 50%”. For the same compound, the “reduction of stathmin RNA levels” value is reported as “approximately 30%” with MCF-7 cells (8 hours) and about 75% with MCF-7 cells (24 hours). Also, the repression of stathmin with MCF-7 cells (12 hours) is 50%. The survivin protein levels entry was “down-regulation of survivin protein levels only in parental CaCl cells” with CaCl and CaCl/E6; “decreased survivin protein levels only in cells with wt p53 (U20S)” in assay [2]. Besides, in assay [1], the “decrease of survivin protein levels” value is given as 3–4 fold. Besides, in assay [1], the “induction of p53 expression” value came to 4 fold.
